{"source": "patent US20260027100A1", "about": "“THERAPEUTIC TYROSINE KINASE INHIBITORS FOR MYELIN OLIGODENDROCYTE GLYCOPROTEIN ANTIBODY DISEASE (MOGAD)” (Principia Biopharma Inc., priority 2022, published 2026)", "assay_type_in_all_cases": "in vivo, human", "key": {"[1]": {"assay": "Phase 2b dose-finding trial (DRI15928): PK data and effect of fed status on tolebrutinib exposure", "settings": "effect of fed status on exposure; Phase 2b trial in relapsing multiple sclerosis", "description": "(§1) The choice of the dose of 60 mg of the BTK inhibitor taken with food is based on the results of a Phase 2b dose-finding trial for tolebrutinib in participants with relapsing multiple sclerosis (DRI15928). See for example, Reich, D. S., et al., Safety and efficacy of tolebrutinib, an oral brain-penetrant BTK inhibitor, in relapsing multiple sclerosis: a phase 2b, randomised, double-blind, placebo-controlled trial. Lancet Neurol, 2021. 20(9): p. 729-738.\n(§2) The choice of the dose of 60 mg tolebrutinib taken with food is based on the results of the Phase 2b dose-finding trial for tolebrutinib in adult participants with relapsing multiple sclerosis (DRI15928)."}, "[2]": {"system": "participants with relapsing multiple sclerosis", "assay": "Phase 2b dose-finding trial (DRI15928): treatment response versus exposure, new gadolinium-enhancing T1-hyperintense lesions", "settings": "after 12 weeks of treatment", "description": "as §1, §2"}, "[3]": {"system": "participants with relapsing multiple sclerosis", "assay": "Phase 2b dose-finding trial (DRI15928): safety (TEAEs, AESIs, PCSAs)", "settings": "Phase 2b trial", "description": "as §1\nThere were low numbers of AESIs and PCSAs observed.\nas §2"}, "[4]": {"assay": "Ongoing tolebrutinib Phase 3 trials: hepatic safety", "settings": "ongoing Phase 3 trials", "excerpt": "Thus, there is a need to mitigate the risk of hepatic injury and provide safe treatment for patients with MOGAD."}}}
{"smiles": "C=CC(=O)N1CCC[C@@H](n2c(=O)n(-c3ccc(Oc4ccccc4)cc3)c3c(N)nccc32)C1", "note": "[tolebrutinib, (R)-1-(1-acryloylpiperidin-3-yl)-4-amino-3-(4-phenoxyphenyl)-1H-imidazo[4,5-c]pyridin-2(3H)-one]", "values": [{"measurement": "increase in AUC0-24 (positive food effect)", "setting": "[1]", "result": "approximately 2 fold"}, {"measurement": "correlation between treatment response and exposure (new gadolinium-enhancing T1-hyperintense lesions)", "setting": "[2]", "result": "higher exposure was associated with low numbers of new gadolinium-enhancing T1-hyperintense lesions"}, {"measurement": "numbers of AESIs and PCSAs observed", "setting": "[3]", "result": "low numbers"}, {"measurement": "new risks identified", "setting": "[3]; overall", "result": "no new risks were identified"}, {"measurement": "correlation between dose administered and number of TEAEs", "setting": "[3]; tolebrutinib treatment arms", "result": "no correlation"}, {"measurement": "most common events (preferred terms)", "setting": "[3]; tolebrutinib treatment arms", "result": "headache, upper respiratory tract infection, and nasopharyngitis"}, {"measurement": "drug-induced liver injury", "setting": "[4]", "result": "Drug-induced liver injury has been identified"}, {"measurement": "time of occurrence of reported liver injury events after start of administration", "setting": "[4]", "result": "2 to 3", "unit": "months"}, {"measurement": "course of liver enzyme elevation after discontinuation", "setting": "[4]; after tolebrutinib discontinuation", "result": "appears reversible"}]}
